pIC50: −log10 of the molar value. Structures can show the parent of a compound that is named as a salt.
System: Gli1 transcript in Daoy cells stimulated with Shh conditioned media
Assay: Functional assay for measuring the inhibition of Gli1 in Daoy cells (bDNA)
Format: cell-based
Settings: Homo sapiens; Daoy cells treated with Shh-CM, 24 hours incubation with compound, Gli1 transcript by bDNA luminescence
Method: Biological activity is determined using a functional assay in Daoy neuronal cancer cells and measures levels of Gli1 ribonucleic acid via a bDNA (branched deoxyribonucleic acid) assay system (Panomics, Inc., Fremont, Calif.). Gli was originally discovered in a Glioblastoma cell line and encodes a zinc finger protein that is activated by Shh signaling. The maximum response is obtained by inducing Gli1 transcription in the Daoy cells with conditioned medium (human embryonic kidney, HEK-293 cells stably expressing recombinant Shh) for 24 hours and then measuring the amount of stimulated Gli1 transcript. […]
The bDNA assay system utilizes the technology of branched-chain DNA to allow amplification of a target ribonucleic acid (transcript). […] The addition of a chemilumigenic substrate during the amplification step allows for detection using luminescence. […]
Daoy cells are grown to confluency in tissue culture T225-flasks in Daoy growth media containing Minimum Essential Medium (MEM) plus 10% Fetal Bovine Serum (FBS) with […] non-essential amino acids and 1 mM sodium pyruvate. The cells are removed from the T225-flasks using trypsin ethylenediaminetetraacetic acid (EDTA), centrifuged, resuspended in media, and then counted. […]

| pIC50 | Structure (SMILES) |
| --- | --- |
| ~9.38 | C[C@H]1CN(C(=O)Nc2ccc(F)cc2)CCN1c1nnc(-c2ccc(F)cc2)c2ccccc12 [Example 2, (S)—N-(4-Fluorophenyl)-4-(4-(4-fluorophenyl)phthalazin-1-yl)-3-methylpiperazine-1-carboxamide hydrochloride] |

Target: T1, CYP3A4 (Homo sapiens, UniProt P08684)
T1 construct: from tissue; host or cells: human liver microsomes
Assay: CYP3A4 Inhibition Assay
Format: in vitro ADME
Settings: liver microsomes, pH 7.4, probe midazolam (5 μM; formation of 1-OH-midazolam), human liver microsomal preparation, 10 μM inhibitor, 5 μM midazolam substrate
Method: Incubation samples are prepared by adding a human liver microsomal preparation to the test inhibitor (final concentrations 0.05 mg/mL protein, 10 μM inhibitor in 100 mM NaPO4, pH 7.4 buffer) and mixed. Samples are pre-incubated for approximately five minutes at 37° C. Following the pre-incubation period, the reaction is initiated with the addition of a solution containing NADPH and midazolam, as the enzyme substrate, (final concentration 1 mM NADPH, 5 μM midazolam). After addition of the NADPH solution, the samples are incubated for 3 min at approximately 37° C. Following the incubation period, the reaction is quenched by the addition of 50 μL of methanol (and an internal standard for chromatography) and the samples are mixed well. After quenching the reaction, the mixture is centrifuged at approximately 4000 rpm for 15 min at approximately 5° C. and analyzed by LC/MS analysis.
Samples are analyzed using HPLC/MS with gradient elution on short conventional C18 columns, (Loading Mobile Phase—95/5 Milli-Q H2O/methanol (v/v) with 1% acetic acid. Mobile Phase B—80/20 Milli-Q H2O/methanol (v/v) with 1% acetic acid. Mobile Phase C—5/95 Milli-Q H2O/methanol (v/v) with 1% acetic acid. Rinsing Mobile Phase—75/25 Milli-Q H2O/acetonitrile (v/v).
The samples are injected into a Mass Spectral Analyzer for Selected Ion Monitoring (SIM) at a mass of 342.1 (1-OH-midazolam) and 346.1 (α-hydroxymidazolam-d4 internal standard) using Turbolon Spray under positive conditions. Data are reported as % inhibition of the formation of 1-OH-midazolam in the presence of an inhibitor concentration of 10 μM.

T1 sequence (P08684 whole entry): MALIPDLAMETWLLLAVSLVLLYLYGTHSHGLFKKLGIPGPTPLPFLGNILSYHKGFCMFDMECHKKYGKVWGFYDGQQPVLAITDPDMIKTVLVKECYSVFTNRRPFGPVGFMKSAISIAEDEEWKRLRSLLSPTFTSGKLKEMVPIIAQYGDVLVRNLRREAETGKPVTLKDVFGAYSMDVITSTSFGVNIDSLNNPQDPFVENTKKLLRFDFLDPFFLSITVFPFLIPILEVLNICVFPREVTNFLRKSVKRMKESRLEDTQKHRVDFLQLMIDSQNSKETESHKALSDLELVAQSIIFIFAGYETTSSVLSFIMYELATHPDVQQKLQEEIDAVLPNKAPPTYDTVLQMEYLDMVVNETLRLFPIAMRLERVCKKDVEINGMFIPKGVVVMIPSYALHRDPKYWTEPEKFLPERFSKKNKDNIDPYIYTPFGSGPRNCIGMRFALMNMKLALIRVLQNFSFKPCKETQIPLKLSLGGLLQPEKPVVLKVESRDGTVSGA

| Structure (SMILES) | inhibition at 3 min, 10 μM [%] |
| --- | --- |
| CC1CN(C(=O)Nc2ccc(OC(F)(F)F)cc2)CCN1c1nnc(-c2ccc(F)cc2)c2ccccc12 (racemic) [Example 6, (±)-4-(4-(4-Fluorophenyl)phthalazin-1-yl)-3-methyl-N-(4-(trifluoromethoxy)phenyl)piperazine-1-carboxamide hydrochloride] | < 45 |
| C[C@H]1CN(c2nnc(-c3ccc(C(F)(F)F)cc3)c3ccccc23)CCN1C(=O)Nc1ccc(F)cc1 [Example 45, (S)-N-(4-Fluorophenyl)-2-methyl-4-(4-(4-(trifluoromethyl)phenyl)phthalazin-1-yl)piperazine-1-carboxamide hydrochloride] | < 45 |
| C[C@H]1CN(C(=O)Nc2ccc(OC(F)(F)F)cc2)CCN1c1nnc(-c2ccc(F)cc2)c2ccccc12 [Example 48, (S)-4-(4-(4-Fluorophenyl)phthalazin-1-yl)-3-methyl-N-(4-(trifluoromethoxy)phenyl)piperazine-1-carboxamide hydrochloride] | < 45 |
| C[C@H]1CN(C(=O)Nc2ccc(F)cc2C(F)(F)F)CCN1c1nnc(-c2ccc(C#N)cc2)c2ccccc12 [Example 60, (S)-4-(4-(4-Cyanophenyl)phthalazin-1-yl)-N-(4-fluoro-2-(trifluoromethyl)phenyl)-3-methylpiperazine-1-carboxamide hydrochloride] | < 45 |
| C[C@H]1CN(C(=O)Nc2ccc(F)cc2C(F)(F)F)CCN1c1nnc(-c2ccccc2)c2ccccc12 [Example 69, (S)-N-(4-Fluoro-2-(trifluoromethyl)phenyl)-3-methyl-4-(4-phenylphthalazin-1-yl)piperazine-1-carboxamide hydrochloride] | < 45 |

The remaining lines, values ahead:

| inhibition at 3 min, 10 μM [%] | Structure (SMILES) |
| --- | --- |
| < 45 | C[C@H]1CN(c2nnc(-c3ccc(F)cc3)c3ccccc23)CCN1C(=O)Nc1ccc(F)cc1C(F)(F)F [Example 18, (S)-N-(4-Fluoro-2-(trifluoromethyl)phenyl)-4-(4-(4-fluorophenyl)phthalazin-1-yl)-2-methylpiperazine-1-carboxamide hydrochloride] |
| < 45 | C[C@H]1CN(c2nnc(-c3ccc(C#N)cc3)c3ccccc23)CCN1C(=O)Nc1ccc(F)cc1F [Example 26, (S)-4-(4-(4-Cyanophenyl)phthalazin-1-yl)-N-(2,4-difluorophenyl)-2-methylpiperazine-1-carboxamide hydrochloride] |
| < 45 | C[C@H]1CN(c2nnc(-c3ccc(C(F)(F)F)cc3)c3ccccc23)CCN1C(=O)Nc1ccc(F)cc1F [Example 47, (S)-N-(2,4-Difluorophenyl)-2-methyl-4-(4-(4-(trifluoromethyl)phenyl)phthalazin-1-yl)piperazine-1-carboxamide hydrochloride] |
| < 45 | CC[C@H]1CN(c2nnc(-c3ccc(F)cc3)c3ccccc23)CCN1C(=O)Nc1ccc(F)cc1F [Example 86, (S)-N-(2,4-Difluorophenyl)-2-ethyl-4-(4-(4-fluorophenyl)phthalazin-1-yl)piperazine-1-carboxamide hydrochloride] |
| < 45 | CC[C@H]1CN(c2nnc(-c3ccc(F)cc3)c3ccccc23)CCN1C(=O)Nc1ccc(F)cc1C(F)(F)F [Example 87, (S)-2-Ethyl-N-(4-fluoro-2-(trifluoromethyl)phenyl)-4-(4-(4-fluorophenyl)phthalazin-1-yl)piperazine-1-carboxamide hydrochloride] |
| < 45 | CC[C@H]1CN(c2nnc(-c3ccc(F)cc3)c3ccccc23)CCN1C(=O)Nc1ccc(F)cc1 [Example 88, (S)-2-Ethyl-N-(4-fluorophenyl)-4-(4-(4-fluorophenyl)phthalazin-1-yl)piperazine-1-carboxamide hydrochloride] |

Source: patent publication US8404687B2, “Disubstituted phthalazine hedgehog pathway antagonists” (Eli Lilly and Company, priority 2008, dated 2013)
